The values that follow come from patent US20230119479A1, “A HISTONE DEACETYLASE INHIBITOR HAVING A NITROGEN-CONTAINING AROMATIC HETEROCYCLYL GROUP” (SHIONOGI & CO., LTD., priority 2019, published 2023).

Molecules are shown by their SMILES.

T1 sequence (Q92769 whole entry): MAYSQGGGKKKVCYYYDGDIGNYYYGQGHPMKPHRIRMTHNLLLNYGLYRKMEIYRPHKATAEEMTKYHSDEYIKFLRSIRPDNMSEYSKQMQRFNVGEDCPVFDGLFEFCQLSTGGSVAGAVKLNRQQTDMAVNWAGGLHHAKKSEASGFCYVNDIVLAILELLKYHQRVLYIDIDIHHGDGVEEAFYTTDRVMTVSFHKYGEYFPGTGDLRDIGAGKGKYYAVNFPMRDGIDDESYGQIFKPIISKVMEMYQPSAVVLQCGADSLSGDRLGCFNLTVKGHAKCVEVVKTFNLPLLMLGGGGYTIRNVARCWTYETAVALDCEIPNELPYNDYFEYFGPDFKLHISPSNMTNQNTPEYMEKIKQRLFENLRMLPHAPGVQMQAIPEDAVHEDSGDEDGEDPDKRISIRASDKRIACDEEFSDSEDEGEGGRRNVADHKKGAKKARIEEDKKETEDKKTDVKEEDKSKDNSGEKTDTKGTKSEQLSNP

One experiment has as its target T1, HDAC2 Human recombinant C-terminal FLAG-tag (Homo sapiens, UniProt Q92769).
T1 construct: FLAG (C); purchased BPS Bioscience 50052
The experiment can be described thus: Measurement of HDAC2 enzyme inhibitory activity (HTRF). It is filed as biochemical. The note with it: recombinant HDAC2, H3K9ac peptide, 3 hours room temperature; read-out: HDAC2 IC50. The protocol:
Test Example 1: Measurement of HDAC2 Enzyme Inhibitory Activity
The HDAC2 enzyme inhibitory activity was measured by the method described in the following test example.
To each well of a 384-well plate (Corning, 4514), DMSO solution of the test compound was dispensed at 50 nL/well from a final concentration of 99 μM to 8 points (n=2) in the 3-fold dilution series using Echo555 (Beckman Coulter). 2.5 μl of 0.005 mg/mL recombinant enzyme HDAC2 (HDAC2 Human recombinant C-terminal FLAG-tag, BPS Bioscience, 50052) was added to each well, 2.5 μl of 0.6 μM H3K9ac peptide (Lys(Ac)9-Histone H3 (1-21)-GGK(Biotin), AnaSpec, 64361) was added, mixed, and reacted in a wet box at room temperature for 3 hours. 50 mM Tris HCL pH8.0, 137 mM sodium chloride, 2.7 mM potassium chloride, 1 mM magnesium chloride, 0.01% Tween20, and 0.1% BSA which were diluted with ultrapure water were used as a reaction buffer at this time. After the reaction, 5 μL of 10 μM SAHA (suberoylanilide hydroxamic acid) as a reaction terminator and the 5 μL of a mixture of 2.5 ng of H3K9me0 antibody (ActiveMotif, 61399) labeled in-house with europium cryptate (Cisbio, 65EUSABA) and 125 nM streptavidin-XL665 (Cisbio, 610SAXLA) as an HTRF (time-resolved fluorescence) reagent were added to each well, mixed, and allowed to stand in a wet box at room temperature for reaction. A detection buffer used at this time was 50 mM Tris HCL pH 8.0, 0.8 M potassium fluoride, and 0.1% BSA which were diluted with ultrapure water. After reacting for 2 hours or more, HTRF was measured using a multi-plate reader such as SpectraMax Paradigm (MOLECULAR DEVICE) or RUBYstar (BMG LABTECH). Ratio (665 nm/615-620 nm×10000) was calculated from the fluorescence values of two wavelengths, 615-620 nm and 665 nm, which were excited at 320-340 nm, and the energy transition was obtained.
A general note: In TR-FRET formats the signal depends on donor and acceptor labels being close together.
One may read the IC50 as the concentration that gives 50% inhibition. Take `Cc1ccc(C(=O)Nc2cc(-c3cnn(C)c3)ccc2N)nc1` [Compound I-155]: the IC50 was 220 nM. Turning to `Nc1ccc(-c2ccc(F)nc2)cc1NC(=O)c1ccc(C2COC2)cn1` [Compound I-246], the IC50 came out at 110 nM.

As to `Nc1ccc(-c2ccc(F)nc2)cc1NC(=O)c1cnc(N2CC3(CCC3)C2)cn1` [Compound I-223], the IC50 is 90 nM.

On to `Cn1cc(-c2ccc(C(=O)Nc3cc(-c4cncs4)ccc3N)nc2)nn1` [Compound I-046], for which the concentration for half-maximal inhibition (IC50) worked out at 54 nM. For `CC(C)Nc1ccc(C(=O)Nc2cc(-c3ccc(F)nc3)ccc2N)nn1` [Compound I-273], the IC50 was found to be 230 nM. For the compound `COC1CN(c2cnc(C(=O)Nc3cc(-c4ccc(F)nc4)ccc3N)cn2)C1` [Compound I-283], the 50% inhibitory concentration (IC50) was 50 nM. On the same count and under the same terms, next, `Nc1ccc(-c2ccc(F)nc2)cc1NC(=O)c1cnc(CF)cn1` [Compound I-134]: 210 nM; `Cn1cc(-c2cc(C(=O)Nc3cc(-c4cncs4)ccc3N)no2)cn1` [Compound I-196]: 55 nM; `Nc1ccc(-c2cncs2)cc1NC(=O)c1cnc(OCF)cn1` [Compound I-100]: 100 nM. The same measure, in the same setting: next, `Nc1ccc(-c2ccc(F)nc2)cc1NC(=O)c1ccc(F)cn1` [Compound I-089]: 400 nM; `C#Cc1ccc(C(=O)Nc2cc(-c3cncs3)ccc2N)nc1` [Compound I-058]: 130 nM.

Take `Nc1ccc(-c2cncs2)cc1NC(=O)c1ccc2[nH]ccc2n1` [Compound I-081]: the IC50 is 280 nM. On the same count and under the same terms, next, `CCCCc1ccc(C(=O)Nc2cc(-c3cncs3)ccc2N)nc1` [Compound I-057]: 320 nM.

Regarding `Cn1cc(-c2ccc(N)c(NC(=O)c3cc(-c4cnn(C)c4)on3)c2)cn1` [Compound I-197], the half-maximal inhibitory concentration (IC50) was 240 nM.

On to `Cc1ncc(-c2ccc(N)c(NC(=O)c3ccc(-c4cnn(C)c4)cn3)c2)s1` [Compound I-032], for which the IC50 is 140 nM. Same read-out and setting: next, `Cn1cc(-c2ccc(C(=O)Nc3cc(-n4cccn4)ccc3N)nc2)cn1` [Compound I-063]: 270 nM; `Nc1ccc(-c2cncs2)cc1NC(=O)c1cnc2[nH]ccc2n1` [Compound I-064]: 96 nM; `Cn1cc(-c2cnc(C(=O)Nc3cc(-c4cncs4)ccc3N)cn2)cn1` [Compound I-010]: 31 nM. Same read-out and setting: next, `CCOc1ccc(C(=O)Nc2cc(-c3cnn(C)c3)ccc2N)nc1` [Compound I-165]: 200 nM.

For the compound `Nc1ccc(-c2ccc(F)nc2)cc1NC(=O)c1cc(F)ccn1` [Compound I-186], the IC50 was 490 nM. The same measure, in the same setting: the same measure for `Cn1cc(-c2ccc(C(=O)Nc3cc(-c4ccc(F)nc4)ccc3N)nc2)nn1` [Compound I-040]: 63 nM; for `CN(C)c1cnc(C(=O)Nc2cc(-c3cnco3)ccc2N)cn1` [Compound I-202]: 60 nM; for `Nc1ccc(-c2ccc(F)nc2)cc1NC(=O)c1cnc(OCC(F)F)cn1` [Compound I-151]: 220 nM. Still for that read-out and setting: next, `CC(C)(C)c1ccc(C(=O)Nc2cc(-c3ccc(F)nc3)ccc2N)nc1` [Compound I-191]: 240 nM; `Cc1ccc(C(=O)Nc2cc(-c3cnn(C)c3)ccc2N)nn1` [Compound I-257]: 570 nM; `Cc1ccc(C(=O)Nc2cc(-c3ccc(F)nc3)ccc2N)nc1` [Compound I-154]: 120 nM.

Consider `Nc1ccc(-c2ccc(F)nc2)cc1NC(=O)c1cc2ccncc2cn1` [Compound I-068], for which the IC50 is 140 nM.

Take `Cn1cc(-c2cnc(C(=O)Nc3nc(-c4ccco4)ccc3N)cn2)cn1` [Compound I-026]: the IC50 is 320 nM. Still for that read-out and setting: the same measure for `Nc1ccc(-c2cncs2)cc1NC(=O)c1cc(Cl)c(Cl)cn1` [Compound I-072]: 480 nM. Still for that read-out and setting: the same measure for `CN(C)c1ccc(C(=O)Nc2cc(-c3ccc(F)nc3)ccc2N)nc1` [Compound I-176]: 79 nM; for `CCc1cnc(C(=O)Nc2cc(-c3ccc(F)nc3)ccc2N)cn1` [Compound I-249]: 70 nM; for `Cn1cc(-c2ccc(N)c(NC(=O)c3ccc4c(n3)OCO4)c2)cn1` [Compound I-216]: 100 nM.

`CC(C)Oc1ccc(C(=O)Nc2cc(-c3cnn(C)c3)ccc2N)nc1` [Compound I-163]: the IC50 worked out at 210 nM. On to `Cn1cc(-c2ccc(C(=O)Nc3cc(-c4cccs4)ccc3N)nc2)nn1` [Compound I-001], for which the IC50 came to 56 nM. Still for that read-out and setting: next, `CC(C)Oc1ccc(C(=O)Nc2cc(-c3ccc(F)nc3)ccc2N)nc1` [Compound I-162]: 200 nM; `CC(C)c1cnc(C(=O)Nc2cc(-c3cnn(C)c3)ccc2N)cn1` [Compound I-252]: 170 nM; `COc1ccnc(C(=O)Nc2cc(-c3ccc(F)nc3)ccc2N)c1` [Compound I-150]: 310 nM. Same read-out and setting: the same measure for `Cn1cc(-c2cnc(C(=O)Nc3cc(-c4cccs4)ccc3N)c(F)c2)cn1` [Compound I-016]: 160 nM; for `Cn1cc(-c2ccc(N)c(NC(=O)c3cnc(NC4CCOCC4)cn3)c2)cn1` [Compound I-290]: 110 nM. On the same count and under the same terms, the same measure for `Nc1ccc(-c2ccc(F)nc2)cc1NC(=O)c1ccc2c(n1)OCC(=O)N2` [Compound I-184]: 49 nM. For `Cn1cc(-c2ccc(N)c(NC(=O)c3cnc(NCc4ccccn4)cn3)c2)cn1` [Compound I-294], the IC50 was 70 nM. Still for that read-out and setting: the same measure for `COCCOc1cnc(C(=O)Nc2nc(-c3ccccc3)ccc2N)cn1` [Compound I-231]: 850 nM.

Regarding `COCCOc1cnc(C(=O)Nc2cc(-c3ccc(F)nc3)ccc2N)cn1` [Compound I-229], the IC50 came to 130 nM.

Turning to `CCOc1ccc(C(=O)Nc2cc(-c3ccc(F)nc3)ccc2N)nc1` [Compound I-164], the IC50 came out at 210 nM. On the same count and under the same terms, next, `Cn1cc(-c2cnc(C(=O)Nc3cc(-c4cnco4)ccc3N)cn2)cn1` [Compound I-009]: 61 nM. Consider `Nc1ccc(-n2ccc(F)c2)cc1NC(=O)c1cnc(NCc2ccccn2)cn1` [Compound I-302], for which the concentration for half-maximal inhibition (IC50) is 80 nM. Regarding `Nc1ccc(-c2ccc(F)nc2)cc1NC(=O)c1cnc(N2CC(Cl)(CCO)C2)cn1` [Compound I-224], the IC50 came out at 100 nM. Same read-out and setting: the same measure for `Nc1ccc(-c2ccc(F)nc2)cc1NC(=O)c1ccc(Cl)nn1` [Compound I-264]: 270 nM; for `COCc1ccc(C(=O)Nc2cc(-c3cnn(C)c3)ccc2N)nc1` [Compound I-207]: 250 nM.

As to `Cn1cc(-c2ccc(N)c(NC(=O)c3cnc(N4CCCOCC4)cn3)c2)cn1` [Compound I-296], the IC50 is 70 nM. Still for that read-out and setting: the same measure for `Nc1ccc(-c2cncs2)cc1NC(=O)c1cc2c(cn1)OC(F)(F)O2` [Compound I-074]: 270 nM; for `CN(Cc1ccccn1)c1cnc(C(=O)Nc2cc(-c3cnn(C)c3)ccc2N)cn1` [Compound I-295]: 80 nM. Same read-out and setting: next, `Cc1cnc(C(=O)Nc2nc(-n3cccc3)ccc2N)cn1` [Compound I-171]: 430 nM. Still for that read-out and setting: the same measure for `Nc1ccc(-c2ccc(F)nc2)cc1NC(=O)c1cnc(OC2CCOCC2)cn1` [Compound I-287]: 170 nM; for `CCOc1ccc(C(=O)Nc2cc(-c3cnn(C)c3)ccc2N)nn1` [Compound I-269]: 180 nM. In the case of `Cn1cc(-c2ccc(N)c(NC(=O)c3cnc(N4CCCC4)cn3)c2)cn1` [Compound I-241], the IC50 is 140 nM. Still for that read-out and setting: next, `CC(C)(O)c1ccc(C(=O)Nc2cc(-c3ccc(F)nc3)ccc2N)nc1` [Compound I-193]: 170 nM; `Nc1ccc(-c2cncs2)cc1NC(=O)c1cc2ccccc2cn1` [Compound I-066]: 110 nM.

`CN(C)c1cnc(C(=O)Nc2nc(-c3cnn(C)c3)ccc2N)cn1` [Compound I-228]: the IC50 was 630 nM.

Consider `Cn1cc(-c2ccc(C(=O)Nc3nc(-c4cccs4)ccc3N)nc2)nn1` [Compound I-034], for which the IC50 worked out at 280 nM. As to `Cn1cc(-c2ccc(N)c(NC(=O)c3cnc(CF)cn3)c2)cn1` [Compound I-147], the IC50 worked out at 290 nM.

Staying with this experiment, now noted: recombinant HDAC2, H3K9ac peptide; read-out: IC50 (HDAC2).
As to `CS(=O)(=O)Nc1cnc(C(=O)Nc2cc(-c3ccc(F)nc3)ccc2N)cn1` [Compound I-311], the half-inhibitory concentration (IC50) came out at 150 nM. Same read-out and setting: next, `Nc1ccc(-c2cccnc2)cc1NC(=O)c1cnc(N2CCOCC2)cn1` [Compound I-312]: 45 nM; `CCC(=O)Nc1ccc(C(=O)Nc2cc(-c3ccc(F)nc3)ccc2N)nc1` [Compound I-306]: 48 nM; `CCC(=O)Nc1ccc(C(=O)Nc2nc(-c3ccccc3)ccc2N)nc1` [Compound I-308]: 280 nM. Same read-out and setting: the same measure for `CC(=O)Nc1cnc(C(=O)Nc2cc(-c3cnn(C)c3)ccc2N)cn1` [Compound I-309]: 120 nM.
